Holding throughout (type): cell-based
For assay [1], the system named is primary human fibroblasts derived from IPF patients (LL29 cells). Nature of the assay: Inhibition of the fibrotic process: αSMA staining in TGF-β1 treated LL29 fibroblasts. Particulars: Fibroblast; for EC50: 96 h, LL29 cells, TGF-β1 20 ng/mL, 4 days, % αSMA positive cells. Here is the method: Representative compounds were screened using primary human fibroblasts (derived from IPF patients) treated with TGF-β1 to determine their ability to inhibit the fibrotic process.
LL29 cells are plated at 1,500 cells/well in 80 μL/well F12 medium supplemented with 1% Fetal Bovine Serum. […] Wells treated with TGF-β1 and containing DMSO were used as controls. […] Following incubation for 4 days, SYTOX green nucleic acid stain (Life Technologies [Thermo Fisher Scientific]) was added to the wells at a final concentration of 1 μM and incubated at room temperature for 30 min.

A further assay has as its system IL-6. Nature of the assay: IL-6 inhibition in LPS-stimulated THP-1 cells (HTRF). Particulars: Homo sapiens; for EC50: THP-1 cells, LPS 500 ng/mL, 22 hours, IL6 HTRF; for inhibition at 10 µM: THP-1, read-out: percent inhibition at 10 μM. Here is the method: THP-1 cells were cultured in basal media with 1% FBS for 24 hours before the start of the assay. […] THP-1 cells were plated at 5000 cells/well in the 384-well plates and incubated at 37° C. for 2 h. 500 ng/mL of LPS was added after 2 hours and cells were incubated for another 22 hours at 37° C. Plates were spun in a centrifuge for 1 minute at […] and a mixture of anti-IL6 XL665, and anti-IL6 Cryptate diluted in reconstitution buffer (Cisbio Inc.) was added to each well. Following incubation for 3 hrs at room temperature, Homogeneous Time-Resolved Fluorescence (HTRF) was measured using the Envision (Perkin Elmer) at 665 nm and […]. The ratio of fluorescence at 665 nm to 620 nm was used as a readout for IL6 quantification. All samples were processed in duplicate. Readings were normalized to DMSO treated cells and normalized activities were utilized for EC50 calculations using the dose-response log (inhibitor) vs. response -variable slope (four parameters) nonlinear regression feature available in GraphPad Prism 5.0 (or Dotmatics).
(Time-resolved FRET reads energy transfer from a long-lived donor to a nearby acceptor.)

A further assay concerns SW480 colon cancer cells. Kind of assay: Cell viability assay (CellTiter-Blue) in SW480 colon cancer cells. Particulars: Homo sapiens; for EC50: 96 h, SW480 cell viability, four days, CellTiter-Blue; for inhibition at 10 µM: SW480, read-out: percent inhibition at 10 μM. How it is done: Representative compounds were screened using the following assay procedure to assess the effect on cell viability as described below.
Approximately 2×10^3 SW480 colon cancer cells were seeded into each well and allowed to incubate in the presence or absence of compound for four days at 37° C./5% CO2. Eight replicates of DMSO-treated cells served as controls and cells treated with compound were performed in duplicate.
After incubation, 20 μL of CellTiter-Blue (Promega) was added to each well allowed to incubate for approximately 3 hours. This reagent was a buffered solution which contains resazurin, metabolically active cells were able to reduce rezarurin (blue) into resorufin (pink) which was highly fluorescent. This measured fluorescence was used as a readout for cell viability.

The subject of the next assay is Wnt activity. Nature of the assay: Wnt activity screening assay, Sp5-Luc reporter gene in SW480 cells. The conditions noted are these: Homo sapiens; for EC50: Sp5-Luc reporter, SW480 cells, overnight incubation; for inhibition at 10 µM: SW480, read-out: percent inhibition at 10 μM. An excerpt: The screening assay for Wnt activity is described as follows. Reporter cell lines can be generated by stably transducing cancer cell lines (e.g., colon cancer) or primary cells (e.g., IEC-6 intestinal cells) with a lentiviral construct that includes a Wnt-responsive promoter driving expression of the firefly luciferase gene.
SW480 colon carcinoma cells were transduced with a lentiviral vector expressing luciferase with a human Sp5 promoter consisting of a sequence of eight TCF/LEF binding sites. SW480 cells stably expressing the Sp5-Luc reporter gene and a hygromycin resistance gene were selected by treatment with 150 μg/mL of hygromycin for 7 days. These stably transduced SW480 cells were expanded in cell culture and used for all further screening activities. […] For Sp5-Luc reporter gene assays, the cells were plated at 4,000 cells/well in 384-well plates with medium containing 1% fetal bovine serum and incubated overnight at 37° C. and 5% CO2. Following incubation, 20 μl of BrightGlo luminescence reagent (Promega) was added to each well of the 384-well assay plates. The plates were placed on an orbital shaker for 2 min and then luminescence was quantified using the Envision (Perkin Elmer) plate reader. Readings were normalized to DMSO only treated cells, and normalized activities were utilized for EC50 calculations using the dose-response log (inhibitor) vs. response -variable slope (four parameters) nonlinear regression feature available in GraphPad Prism 5.0 (or Dotmatics).
On the technique in general: Reporter assays use an easily measured gene product as a stand-in for the process of interest.

The EC50 is the midpoint of the concentration-response curve. Higher therefore signals lower potency in that assay. What is called inhibition is the change of the read-out against control, counted positive when it falls.

With `O=C(Nc1cncc(-c2cc3c(-c4cc5c(-c6ccccc6F)cncc5[nH]4)n[nH]c3cn2)c1)C1CCCCC1` [Compound 79, N-(5-(3-(4-(2-Fluorophenyl)-1H-pyrrolo[2,3-c]pyridin-2-yl)-1H-pyrazolo[3,4-c]pyridin-5-yl)pyridin-3-yl)cyclohexanecarboxamide], the EC50 in assay [1] is 1080 nM; in the assay with IL-6 it was 9560 nM; in the assay with SW480 colon cancer cells it was 1730 nM; in the assay with Wnt activity, 3260 nM.
The like results for `CN(C)c1cncc(-c2cc3c(-c4cc5c(-c6cccc(F)c6)cncc5[nH]4)n[nH]c3cn2)c1` [Compound 7, 5-(3-(4-(3-Fluorophenyl)-1H-pyrrolo[2,3-c]pyridin-2-yl)-1H-pyrazolo[3,4-c]pyridin-5-yl)-N,N-dimethylpyridin-3-amine] were, in that order, 1040 nM, 9840 nM, 1260 nM and 2330 nM.
As for `CC(C)CC(=O)Nc1cncc(-c2cc3c(-c4cc5c(-c6ccncc6)cncc5[nH]4)n[nH]c3cn2)c1` [Compound 114, 3-Methyl-N-(5-(3-(4-(pyridin-4-yl)-1H-pyrrolo[2,3-c]pyridin-2-yl)-1H-pyrazolo[3,4-c]pyridin-5-yl)pyridin-3-yl)butanamide], the 50% effective concentration (EC50) (in assay [1]; with IL-6; in the assay with SW480 colon cancer cells; in the assay on Wnt activity) was more than 10000 nM in each case. Further, the inhibition at 10 µM in assay [1] (read-out: percent inhibition at 10 μM) turned out to be 23%; in the assay on IL-6, 11.6%; with SW480 colon cancer cells it was 14.2%; in the assay on Wnt activity, 15.1%.
In the case of `c1cc2cc(-c3n[nH]c4cnc(-c5cncc(CNCC6CCCC6)c5)cc34)[nH]c2cn1` [Compound 277, 1-(5-(3-(1H-Pyrrolo[2,3-c]pyridin-2-yl)-1H-pyrazolo[3,4-c]pyridin-5-yl)pyridin-3-yl)-N-(cyclopentylmethyl)methanamine], the EC50 worked out at 1810 nM in assay [1], 3580 nM with IL-6, 3960 nM with SW480 colon cancer cells and 3480 nM in the assay on Wnt activity.
On to `Fc1ccccc1-c1cncc2[nH]c(-c3n[nH]c4cnc(-c5cn[nH]c5)cc34)cc12` [Compound 539, 3-(4-(2-Fluorophenyl)-1H-pyrrolo[2,3-c]pyridin-2-yl)-5-(1H-pyrazol-4-yl)-1H-pyrazolo[3,4-c]pyridine], for which the concentration giving a half-maximal response (EC50) in assay [1] is 2430 nM; in the assay on IL-6, more than 10000 nM; in the assay with SW480 colon cancer cells, more than 10000 nM; in the assay on Wnt activity, more than 10000 nM. Besides, the inhibition at 10 µM in the assay on IL-6 amounted to 0%; with SW480 colon cancer cells, 3.6%; in the assay with Wnt activity, 8.6%.
Regarding `CC(C)C(=O)Nc1cncc(-c2cc3c(-c4cc5c(-c6ccoc6)cncc5[nH]4)n[nH]c3cn2)c1` [Compound 317, N-(5-(3-(4-(Furan-3-yl)-1H-pyrrolo[2,3-c]pyridin-2-yl)-1H-pyrazolo[3,4-c]pyridin-5-yl)pyridin-3-yl)isobutyramide], the EC50 in assay [1] is 4880 nM; in the assay on IL-6 it was 1000 nM; in the assay with SW480 colon cancer cells, more than 10000 nM; in the assay on Wnt activity it was 3650 nM. For the same molecule, the inhibition at 10 µM in the assay with SW480 colon cancer cells came to 0%.
For the molecule `CC(C)Nc1cncc(-c2cc3c(-c4cc5c(-c6ccc(F)cc6)cncc5[nH]4)n[nH]c3cn2)c1` [Compound 40, 5-(3-(4-(4-Fluorophenyl)-1H-pyrrolo[2,3-c]pyridin-2-yl)-1H-pyrazolo[3,4-c]pyridin-5-yl)-N-isopropylpyridin-3-amine], the EC50 came out at 141 nM in assay [1], 2470 nM in the assay on IL-6, 1290 nM in the assay on SW480 colon cancer cells and 937 nM in the assay on Wnt activity.
Taken in the same sequence, the figures for `Cc1ccncc1-c1cc2c(-c3cc4c(-c5ccoc5)cncc4[nH]3)n[nH]c2cn1` [Compound 313, 3-(4-(Furan-3-yl)-1H-pyrrolo[2,3-c]pyridin-2-yl)-5-(4-methylpyridin-3-yl)-1H-pyrazolo[3,4-c]pyridine] were 599 nM, 4270 nM, 1740 nM and 1590 nM.
On to `c1cc(-c2cc3c(-c4cc5c(N6CCCCC6)cncc5[nH]4)n[nH]c3cn2)ccn1` [Compound 186, 3-(4-(Piperidin-1-yl)-1H-pyrrolo[2,3-c]pyridin-2-yl)-5-(pyridin-4-yl)-1H-pyrazolo[3,4-c]pyridine], for which the EC50 in assay [1] is 4870 nM; with IL-6, more than 10000 nM; in the assay on SW480 colon cancer cells, 3950 nM; in the assay with Wnt activity, 5510 nM. Besides, in the assay on IL-6, the inhibition at 10 µM came to 20.1%.
The like results for `CC(C)(C)C(=O)Nc1cncc(-c2cc3c(-c4cc5c(-c6ccc(F)cc6)cncc5[nH]4)n[nH]c3cn2)c1` [Compound 36, N-(5-(3-(4-(4-Fluorophenyl)-1H-pyrrolo[2,3-c]pyridin-2-yl)-1H-pyrazolo[3,4-c]pyridin-5-yl)pyridin-3-yl)pivalamide] were, in that order, 299 nM, more than 10000 nM, 1100 nM, 1600 nM and 29.6%.
As to `CN(C)c1cncc(-c2cc3c(-c4cc5ccncc5[nH]4)n[nH]c3cn2)c1` [Compound 259, 5-(3-(1H-Pyrrolo[2,3-c]pyridin-2-yl)-1H-pyrazolo[3,4-c]pyridin-5-yl)-N,N-dimethylpyridin-3-amine], the EC50 turned out to be 606 nM in assay [1], 3580 nM in the assay with IL-6, 820 nM with SW480 colon cancer cells and 2860 nM with Wnt activity.
Consider `FC1(F)CCN(Cc2cncc(-c3cc4c(-c5cc6c(-c7cccs7)cncc6[nH]5)n[nH]c4cn3)c2)C1` [Compound 362, 5-(5-((3,3-Difluoropyrrolidin-1-yl)methyl)pyridin-3-yl)-3-(4-(thiophen-2-yl)-1H-pyrrolo[2,3-c]pyridin-2-yl)-1H-pyrazolo[3,4-c]pyridine], for which the EC50 in assay [1] worked out at 1160 nM; in the assay with IL-6 it was 1320 nM; in the assay on SW480 colon cancer cells, 4100 nM; with Wnt activity, 5240 nM.
In the case of `O=C(Nc1cncc(-c2cc3c(-c4cc5ccncc5[nH]4)n[nH]c3cn2)c1)C1CC1` [Compound 272, N-(5-(3-(1H-Pyrrolo[2,3-c]pyridin-2-yl)-1H-pyrazolo[3,4-c]pyridin-5-yl)pyridin-3-yl)cyclopropanecarboxamide], the EC50 in assay [1] is 467 nM; in the assay with IL-6, 3140 nM; in the assay on SW480 colon cancer cells, more than 10000 nM; in the assay on Wnt activity it was 977 nM. Besides, the inhibition at 10 µM in the assay with SW480 colon cancer cells was determined as 29.9%.
On to `CN(C)CCOc1cncc(-c2cc3c(-c4cc5c(-c6cccs6)cncc5[nH]4)n[nH]c3cn2)c1` [Compound 707, N,N-Dimethyl-2-((5-(3-(4-(thiophen-2-yl)-1H-pyrrolo[2,3-c]pyridin-2-yl)-1H-pyrazolo[3,4-c]pyridin-5-yl)pyridin-3-yl)oxy)ethan-1-amine], for which the 50% effective concentration (EC50) in assay [1] is 5100 nM; in the assay with IL-6, more than 10000 nM; in the assay with SW480 colon cancer cells it was more than 10000 nM; in the assay on Wnt activity, more than 10000 nM. The inhibition at 10 µM in the assay with IL-6 was 41.3%; in the assay on SW480 colon cancer cells, 0%; in the assay on Wnt activity, 5%.
As for `CC(C)(C)CC(=O)Nc1cncc(-c2cc3c(-c4cc5c(-c6ccccc6F)cncc5[nH]4)n[nH]c3cn2)c1` [Compound 72, N-(5-(3-(4-(2-Fluorophenyl)-1H-pyrrolo[2,3-c]pyridin-2-yl)-1H-pyrazolo[3,4-c]pyridin-5-yl)pyridin-3-yl)-3,3-dimethylbutanamide], the EC50 came out at 468 nM in assay [1], 805 nM in the assay on IL-6, 693 nM in the assay on SW480 colon cancer cells and 975 nM in the assay on Wnt activity.

Source of the values: patent US10383861B2, “3-(1H-pyrrolo[2,3-C]pyridin-2-yl)-1H-pyrazolo[3,4-C]pyridines and therapeutic uses thereof” (Samumed, LLC, priority 2015, dated 2019).
